According to US11548952B2, “Bispecific antibody against CD3 and CD20 in combination therapy for treating diffuse large B-cell lymphoma” (GENMAB A/S, priority 2020, dated 2023):
Read-outs that look alike come from different tables or passages of the source.

Experiments:
[1] = system: R/R DLBCL eligible for ASCT; assay type: in vivo, human; details: in combination with R-DHAX/C, preliminary
Method: The trial is conducted in 2 parts: dose escalation (Part 1) and expansion (Part 2). Subjects participate in only one part. Both parts consist of a screening period, a treatment period, a safety follow-up period, and a survival follow-up period.
Epcoritamab is initially be administered in combination with R-DHAX/C in a 3-subject cohort. DLTs are evaluated during the first 28 days.
Dexamethasone (40 mg) is administered intravenously or orally on days 1-4 of a cycle once every 3 weeks (Q3W) for cycles 1-3. Cytarabine (2 g/m^2) is administered intravenously on day 1 (usually over 3 hours), repeated after 12 hours (may result in a second dose on day 2 depending on timing of first dose), once every 3 weeks (Q3W) for cycles 1-3. […] Carboplatin (for DHAC) (AUC=5 mg/ml/min; Calvert's formula) is administered intravenously on day 1 once every 3 weeks (Q3W) for cycles 1-3.
CRS is graded according to the ASTCT grading for CRS (Tables 6 and 7), and for treatment of CRS, subjects should receive supportive care. […]

[2] = system: CD20-expressing Raji-luc tumor cells; details: NOD-SCID mice injected with Raji-luc tumor cells and PBMCs; even in the presence of an excess of IgG1-RTX-FEAR; cited from earlier work
CD20 = target: T1, CD20 (Homo sapiens, UniProt P11836); details: bind to a different epitope; cited from earlier work
T1 sequence (P11836 1-297): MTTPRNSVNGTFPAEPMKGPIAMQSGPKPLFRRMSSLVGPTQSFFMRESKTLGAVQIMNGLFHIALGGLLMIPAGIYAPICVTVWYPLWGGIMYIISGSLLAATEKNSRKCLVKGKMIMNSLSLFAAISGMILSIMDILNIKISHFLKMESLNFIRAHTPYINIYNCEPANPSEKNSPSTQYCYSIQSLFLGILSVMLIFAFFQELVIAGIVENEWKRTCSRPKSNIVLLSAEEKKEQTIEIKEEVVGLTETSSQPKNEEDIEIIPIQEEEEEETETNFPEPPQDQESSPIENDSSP

Substance | responders observed ([1]; escalation phase, as of Sep. 8, 2021, 22 patients dosed in total) | responders observed ([1]; expansion phase 48 mg, as of Sep. 8, 2021, response data not completely entered) | tumor growth in the xenograft model [2] | competition for CD20 binding (CD20)
Epcoritamab: IgG1 bispecific CD3×CD20 antibody; heavy and light chain pairs SEQ ID NOs: 24 and 25, and 26 and 27; CAS 2134641-34-0 | 4 | 0 | effectively reduce tumor growth | 
IgG1-CD20: anti-CD20 antibody of which the CD20 arm of epcoritamab is derived |  |  |  | compete for CD20 binding
